Experimental data taken from article PMC5893361 (International Journal for Parasitology, 2018).
Like-named read-outs stand apart in the source and are kept apart here.

Legend:
BmVAL-1 = target: T1, BmVAL-1 (Brugia malayi, UniProt A0A0J9Y762); experiment: radioligand saturation binding, Q-sepharose adsorption
T1 construct: gene bma-scl-11.3; mature protein without 16-residue signal peptide, two vector-derived C-terminal residues; 206 residues; secreted from Nicotiana benthamiana; N-glycosylated at N52 and N138

Pry1 = target: T2, Pry1 (Saccharomyces cerevisiae, UniProt P47032); experiment: as above
T2 construct: construct not described here (full length secreted protein or CAP domain)
T2 sequence (P47032 20-299): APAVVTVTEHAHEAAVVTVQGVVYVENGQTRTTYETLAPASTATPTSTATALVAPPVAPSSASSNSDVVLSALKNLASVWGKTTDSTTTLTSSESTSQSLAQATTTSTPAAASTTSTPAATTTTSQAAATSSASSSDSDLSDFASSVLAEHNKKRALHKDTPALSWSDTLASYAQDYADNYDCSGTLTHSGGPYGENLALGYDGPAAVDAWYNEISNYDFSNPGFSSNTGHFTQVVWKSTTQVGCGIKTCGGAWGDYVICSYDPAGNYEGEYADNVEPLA

T1 sequence (A0A0J9Y762 entry or part of it): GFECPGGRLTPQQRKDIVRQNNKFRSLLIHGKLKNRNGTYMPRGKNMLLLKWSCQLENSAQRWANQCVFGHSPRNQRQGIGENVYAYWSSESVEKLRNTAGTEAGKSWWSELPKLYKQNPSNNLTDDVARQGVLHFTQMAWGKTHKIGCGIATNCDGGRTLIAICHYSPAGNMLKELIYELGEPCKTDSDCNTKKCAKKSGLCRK

Row | SMILES | Kd (BmVAL-1) [nM] | Kd (Pry1) [nM] | Kd (BmVAL-1; read-out: Kd) [nM]
1 | CC(C)CCC[C@@H](C)[C@H]1CC[C@H]2[C@@H]3CC=C4C[C@@H](O)CC[C@]4(C)[C@H]3CC[C@]12C [cholesterol] | 990 | 1900 | –
2 | CCCCCCCCCCCCCCCC(=O)O [palmitate] | – | – | 83000
